Source: ChEMBL document CHEMBL3885861, “Open TG-GATES”

Species on record: Rattus norvegicus
Assay: Open TG-GATES - Regimen: Single
Type: toxicity, organism-based, Sprague-Dawley
Parameters: regimen Single, gender Male, age 6 weeks
Conditions: in vivo, iv, 0 mg/kg, route intravenous injection, dose level Control; for APTT / Bas / Eos / Fbg / Hb / Ht / Lym / MCH / MCHC / MCV / Mono / Neu / PT / Plat / RBC / Ret / WBC: tissue Blood; for KIDNEY_L / KIDNEY_R / KIDNEY_TOTAL: tissue Kidney; for LIVER: tissue Liver; for A/G / ALP / ALT / AST / BUN / CRE / Ca / Cl / DBIL / GLC / IP / K / LDH / Na / PL / RALB / TBIL / TC / TG / TP / gamma-GTP: tissue Plasma

## C[C@@H]1C[C@@H]([C@H](O)CC2CC(=O)NC(=O)C2)C(=O)[C@@H](C)C1 [CYCLOHEXIMIDE]
3 h
  TERMINAL_BW: 221.4 g
  APTT: 21.8 s
  Bas: 0%
  Eos: 1%
  Fbg: 315.6 mg/dL
  Hb: 13.1 g/dL
  Ht: 39.2%
  Lym: 75.6%
  MCH: 21.3 pg
  MCHC: 33.3%
  MCV: 64 fL
  Mono: 2.8%
  Neu: 19.4%
  PT: 16.2 s
  Plat: 120.1 x10_4/uL
  RBC: 612.2 x10_4/ul
  Ret: 8.7%
  WBC: 95.6 x10_2/uL
  KIDNEY_L: 1 g
  KIDNEY_R: 1 g
  KIDNEY_TOTAL: 2 g
  LIVER: 10.2 g
  A/G: 1.2
  ALP: 1480.4 IU/L
  ALT: 44.4 IU/L
  AST: 75.4 IU/L
  BUN: 11.4 mg/dL
  CRE: 0.1 mg/dL
  Ca: 10.4 mg/dL
  Cl: 106.8 meq/L
  DBIL: 0.004 mg/dL
  GLC: 187 mg/dL
  IP: 9.1 mg/dL
  K: 4 meq/L
  LDH: 171.8 IU/L
  Na: 141 meq/L
  PL: 130.8 mg/dL
  RALB: 2.9 g/dL
  TBIL: 0.024 mg/dL
  TC: 76.8 mg/dL
  TG: 49.2 mg/dL
  TP: 5.2 g/dL
  gamma-GTP: 1.4 IU/L
6 h
  TERMINAL_BW: 214.4 g
  APTT: 22.6 s
  Bas: 0%
  Eos: 1%
  Fbg: 314.4 mg/dL
  Hb: 13.4 g/dL
  Ht: 39.9%
  Lym: 78.2%
  MCH: 21.4 pg
  MCHC: 33.6%
  MCV: 64 fL
  Mono: 2.8%
  Neu: 17.2%
  PT: 15.5 s
  Plat: 113.8 x10_4/uL
  RBC: 624 x10_4/ul
  Ret: 8.7%
  WBC: 88.7 x10_2/uL
  KIDNEY_L: 1 g
  KIDNEY_R: 1 g
  KIDNEY_TOTAL: 2 g
  LIVER: 9.4 g
  A/G: 1.3
  ALP: 1423 IU/L
  ALT: 38.6 IU/L
  AST: 71.6 IU/L
  BUN: 10 mg/dL
  CRE: 0.1 mg/dL
  Ca: 10.5 mg/dL
  Cl: 107.2 meq/L
  DBIL: 0.002 mg/dL
  GLC: 177 mg/dL
  IP: 9.2 mg/dL
  K: 4.2 meq/L
  LDH: 198.8 IU/L
  Na: 140.8 meq/L
  PL: 139.6 mg/dL
  RALB: 2.9 g/dL
  TBIL: 0.036 mg/dL
  TC: 78.6 mg/dL
  TG: 52 mg/dL
  TP: 5.2 g/dL
  gamma-GTP: 1.2 IU/L
9 h
  TERMINAL_BW: 215.8 g
  APTT: 23.2 s
  Bas: 0%
  Eos: 0.6%
  Fbg: 313.4 mg/dL
  Hb: 12.9 g/dL
  Ht: 38.5%
  Lym: 78.8%
  MCH: 20.8 pg
  MCHC: 33.4%
  MCV: 62.2 fL
  Mono: 2%
  Neu: 17.8%
  PT: 15.8 s
  Plat: 109.2 x10_4/uL
  RBC: 620.6 x10_4/ul
  Ret: 8.1%
  WBC: 65.1 x10_2/uL
  KIDNEY_L: 1 g
  KIDNEY_R: 1 g
  KIDNEY_TOTAL: 2 g
  LIVER: 9 g
  A/G: 1.3
  ALP: 1329.2 IU/L
  ALT: 37.4 IU/L
  AST: 71 IU/L
  BUN: 10 mg/dL
  CRE: 0.1 mg/dL
  Ca: 10.4 mg/dL
  Cl: 106.4 meq/L
  DBIL: 0.002 mg/dL
  GLC: 176 mg/dL
  IP: 9.7 mg/dL
  K: 3.9 meq/L
  LDH: 164.6 IU/L
  Na: 142.4 meq/L
  PL: 125.8 mg/dL
  RALB: 3 g/dL
  TBIL: 0.036 mg/dL
  TC: 72.4 mg/dL
  TG: 37.6 mg/dL
  TP: 5.4 g/dL
  gamma-GTP: 1.4 IU/L
24 h
  TERMINAL_BW: 229.3 g
  APTT: 22.3 s
  Bas: 0%
  Eos: 1%
  Fbg: 319.8 mg/dL
  Hb: 13.5 g/dL
  Ht: 40.3%
  Lym: 80.6%
  MCH: 21 pg
  MCHC: 33.5%
  MCV: 62.5 fL
  Mono: 2.8%
  Neu: 14.6%
  PT: 16 s
  Plat: 119 x10_4/uL
  RBC: 643.8 x10_4/ul
  Ret: 8.7%
  WBC: 90.5 x10_2/uL
  KIDNEY_L: 1 g
  KIDNEY_R: 1 g
  KIDNEY_TOTAL: 2 g
  LIVER: 11 g
  A/G: 1.2
  ALP: 1510.6 IU/L
  ALT: 38.2 IU/L
  AST: 65.8 IU/L
  BUN: 16 mg/dL
  CRE: 0.1 mg/dL
  Ca: 10.8 mg/dL
  Cl: 106 meq/L
  DBIL: 0 mg/dL
  GLC: 202.2 mg/dL
  IP: 7.7 mg/dL
  K: 4.2 meq/L
  LDH: 179.2 IU/L
  Na: 140.4 meq/L
  PL: 142.8 mg/dL
  RALB: 3 g/dL
